# Measured values: patent publication US11319324B2, “Pyrazolo-pyrrolo-pyrimidine-dione derivatives as P2X3 inhibitors” (Bayer Aktiengesellschaft, priority 2017, dated 2022)
# Assays:
# Type in all cases: cell-based
# human P2X2/3 receptors = target: T1, human P2X2/3 receptors (Homo sapiens, UniProt P56373+Q9UBL9); assay: Intracellular calcium measurement, antagonist activity at human P2X2/3 receptors (hP2X23 1321N1), Fluo8; conditions: for IC50: column 4); 1321N1 cells, human P2X2/3, Fluo8, agonist ATP at EC50; read-out: 4) hP2X2/3 IC50 [nM] (1321N1); for hP2X23/hP2X3* Selectivity (1321N1): ratio of column 4) hP2X2/3 to column 3) hP2X3, 1321N1
# T1 construct: expressed in transfected cells; host or cells: human astrocytoma 1321N1 (1312N1 [sic])
# T1 sequence (P56373 1-397): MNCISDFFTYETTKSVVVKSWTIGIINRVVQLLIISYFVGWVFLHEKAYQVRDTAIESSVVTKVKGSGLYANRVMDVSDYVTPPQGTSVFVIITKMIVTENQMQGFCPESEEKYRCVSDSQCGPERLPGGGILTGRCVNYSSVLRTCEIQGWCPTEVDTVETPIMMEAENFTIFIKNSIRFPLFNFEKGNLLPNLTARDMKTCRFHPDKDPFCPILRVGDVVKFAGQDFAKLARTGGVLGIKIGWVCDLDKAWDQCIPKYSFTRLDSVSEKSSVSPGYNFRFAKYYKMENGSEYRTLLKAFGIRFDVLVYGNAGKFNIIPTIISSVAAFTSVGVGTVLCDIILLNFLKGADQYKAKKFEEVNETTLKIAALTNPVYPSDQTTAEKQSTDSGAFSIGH
# T1 sequence (Q9UBL9 1-471): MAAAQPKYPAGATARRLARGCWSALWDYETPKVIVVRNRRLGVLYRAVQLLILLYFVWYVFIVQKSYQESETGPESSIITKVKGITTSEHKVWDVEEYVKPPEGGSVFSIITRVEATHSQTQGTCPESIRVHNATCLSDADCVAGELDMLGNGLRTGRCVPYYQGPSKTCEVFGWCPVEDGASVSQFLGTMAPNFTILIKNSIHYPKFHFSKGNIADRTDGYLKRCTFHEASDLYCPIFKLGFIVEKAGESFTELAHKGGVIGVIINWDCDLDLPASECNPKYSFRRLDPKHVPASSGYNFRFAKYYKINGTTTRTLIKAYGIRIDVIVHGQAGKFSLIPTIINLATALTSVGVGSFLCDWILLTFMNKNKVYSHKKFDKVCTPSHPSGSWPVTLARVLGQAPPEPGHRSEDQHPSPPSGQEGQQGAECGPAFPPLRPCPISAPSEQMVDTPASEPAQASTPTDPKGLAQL
# Procedure, shortened: (§1)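 Antagonism was assessed by decrease of the Fluo8 calcium signal after ATP challenge, with ATP dosed at the EC50 of whichever receptor was tested. Stable 1321N1 astrocytoma lines expressed either human P2X3 or both P2X2 and P2X3, and were dye-loaded 60 min before a 10 min compound incubation.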
# human P2X3 receptor [1] = target: T2, human P2X3 receptor (Homo sapiens, UniProt P56373); assay: Intracellular calcium measurement, antagonist activity at human P2X3 receptors (hP2X3 1321N1), Fluo8; parameters: expressed in transfected cells; host or cells: human astrocytoma 1321N1 (1312N1 [sic]); conditions: column 3); 1321N1 cells, human P2X3, Fluo8, agonist ATP at EC50
# T2 sequence (P56373 1-397): T1 sequence (P56373 1-397)
# Procedure, shortened: as §1
# human P2X3 receptor [2] = target: T2, human P2X3 receptor; assay: Intracellular calcium measurement to assess antagonist activity at human P2X3 receptors (hP2X3 CHO), photina luminescence; parameters: expressed in transfected cells; host or cells: Chinese hamster ovary (CHO) cells; conditions: column 2), CHO cells, agonist α,β-methylene-ATP at EC50
# Procedure, shortened: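 Antagonism read as lowered photina luminescence after agonist stimulation in recombinant hP2X3/photina CHO cells. Cells seeded one day earlier (30 °C) and reconstituted with 5 μg/ml coelenterazine in 2 mM Ca-tyrode buffer for 3 h at 37 °C before measurement.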
Compound,IC50 (human P2X2/3 receptors),hP2X23/hP2X3* Selectivity (1321N1) (human P2X2/3 receptors),IC50 (human P2X3 receptor [1]),IC50 (human P2X3 receptor [2])
CCc1cc2n(CC(=O)Nc3ccc(F)cn3)c3c(c(=O)n2n1)CN(C1CCN(C(=O)OC(C)(C)C)C1)C3=O (stereo not drawn) [Example 78],6100 nM,98,62 nM,21 nM
"CCc1cc2n(CC(=O)Nc3ccc(F)cn3)c3c(c(=O)n2n1)CN(CCN)C3=O [Example 245, 2-[6-(2-aminoethyl)-2-ethyl-5,8-dioxo-5,6,7,8-tetrahydro-4H-pyrazolo[1,5-a]pyrrolo[3,4-d]pyrimidin-4-yl]-N-(5-fluoropyridin-2-yl)acetamide]",> 21000 nM,>61,345 nM,425 nM
CC(C)N1Cc2c(n(CC(=O)Nc3ccc(F)cn3)c3cc(C4CCN(C5CCC5)CC4)nn3c2=O)C1=O [Example 252],> 32000 nM,>91,350 nM,460 nM
"CCc1cc2n(CC(=O)Nc3ccc(F)cn3)c3c(c(=O)n2n1)CN(C[C@@H]1CN(C(=O)OC(C)(C)C)CCO1)C3=O [Example 90, Tert-butyl(2R)-2-{[2-ethyl-4-{2-[(5-fluoropyridin-2-yl)amino]-2-oxoethyl}-5,8-dioxo-5,8-dihydro-4H-pyrazolo[1,5-a]pyrrolo[3,4-d]pyrimidin-6(7H)-yl]methyl}morpholine-4-carboxylate]",3450 nM,27,130 nM,94 nM
"CCc1cc2n(CC(=O)Nc3ccc(F)cn3)c3c(c(=O)n2n1)CN(C[C@H]1CN(C(=O)OC(C)(C)C)CCO1)C3=O [Example 86, tert-butyl(2S)-2-{[2-ethyl-4-{2-[(5-fluoropyridin-2-yl)amino]-2-oxoethyl}-5,8-dioxo-5,8-dihydro-4H-pyrazolo[1,5-a]pyrrolo[3,4-d]pyrimidin-6(7H)-yl]methyl}morpholine-4-carboxylate]",2350 nM,17,140 nM,70 nM
O=C(Cn1c2c(c(=O)n3nc(C4CC4)cc13)CN(CCN1CCOCC1)C2=O)Nc1ccc(F)cn1 [Example 104],> 32000 nM,>267,120 nM,69 nM
CCc1cc2n(CC(=O)Nc3ccc(F)cn3)c3c(c(=O)n2n1)CN(C1CCOCC1)C3=O [Example 94],> 23000 nM,>56,410 nM,290 nM
CCc1cc2n(CC(=O)Nc3ccc(Cl)cn3)c3c(c(=O)n2n1)CN(CC1CCCO1)C3=O (stereo not drawn) [Example 62],5150 nM,21,240 nM,55 nM
"COC[C@H](C)N1Cc2c(n(CC(=O)Nc3ccc(F)cn3)c3cc(-c4ccncc4C)nn3c2=O)C1=O [Example 152, N-(5-fluoropyridin-2-yl)-2-{6-[(2S)-1-methoxypropan-2-yl]-2-(3-methylpyridin-4-yl)-5,8-dioxo-5,6,7,8-tetrahydro-4H-pyrazolo[1,5-a]pyrrolo[3,4-d]pyrimidin-4-yl}acetamide]",1460 nM,328,4 nM,9 nM
CCc1cc2n(CC(=O)Nc3ccc(F)cn3)c3c(c(=O)n2n1)CN(C1CCN(C(=O)C(F)F)C1)C3=O (stereo not drawn) [Example 266],> 32000 nM,>101,317 nM,270 nM
CCc1cc2n(CC(=O)Nc3ccc(F)cn3)c3c(c(=O)n2n1)CN(Cc1ccncc1)C3=O [Example 106],10500 nM,227,46 nM,69 nM
"Cc1ccc(-c2cc3n(CC(=O)Nc4ccc(F)cn4)c4c(c(=O)n3n2)CN([C@@H]2CCOC2)C4=O)nc1 [Example 160, N-(5-fluoropyridin-2-yl)-2-[2-(5-methylpyridin-2-yl)-5,8-dioxo-6-[(3R)-oxolan-3-yl]-5,6,7,8-tetrahydro-4H-pyrazolo[1,5-a]pyrrolo[3,4-d]pyrimidin-4-yl]acetamide]",2200 nM,367,6 nM,16 nM

# Now from value to compound:
IC50 (human P2X2/3 receptors),hP2X23/hP2X3* Selectivity (1321N1) (human P2X2/3 receptors),IC50 (human P2X3 receptor [1]),IC50 (human P2X3 receptor [2]),Compound
> 32000 nM,>194,165 nM,109 nM,"CC(C)N1Cc2c(n(CC(=O)Nc3ccc(F)cn3)c3cc(C(=O)N(C)C)nn3c2=O)C1=O [Example 182, 4-{2-[(5-fluoropyridin-2-yl)amino]-2-oxoethyl}-N,N-dimethyl-5,8-dioxo-6-(propan-2-yl)-5,6,7,8-tetrahydro-4H-pyrazolo[1,5-a]pyrrolo[3,4-d]pyrimidine-2-carboxamide]"
8920 nM,158,56 nM,23 nM,"CC(C)N1Cc2c(n(CC(=O)Nc3ccc(F)cn3)c3cc(C(=O)N4CCC4)nn3c2=O)C1=O [Example 223, 2-[2-(azetidin-1-ylcarbonyl)-5,8-dioxo-6-(propan-2-yl)-5,6,7,8-tetrahydro-4H-pyrazolo[1,5-a]pyrrolo[3,4-d]pyrimidin-4-yl]-N-(5-fluoropyridin-2-yl)acetamide]"
6950 nM,56,124 nM,97 nM,"CC(C)N1Cc2c(n(CC(=O)Nc3ccc(F)cn3)c3cc(C#N)nn3c2=O)C1=O [Example 146, 2-[2-cyano-5,8-dioxo-6-(propan-2-yl)-5,6,7,8-tetrahydro-4H-pyrazolo[1,5-a]pyrrolo[3,4-d]pyrimidin-4-yl]-N-(5-fluoropyridin-2-yl)acetamide]"
> 32000 nM,>136,235 nM,120 nM,CC(C)N1Cc2c(n(CC(=O)Nc3ccc(F)cn3)c3cc(CO)nn3c2=O)C1=O [Example 72]
> 32000 nM,>164,195 nM,235 nM,CC(C)N1Cc2c(n(CC(=O)Nc3ccc(F)cn3)c3cc(C4CCN(C)CC4)nn3c2=O)C1=O [Example 251]
4650 nM,44,105 nM,115 nM,"CC(C)NC(=O)Nc1cc2n(CC(=O)Nc3ccc(F)cn3)c3c(c(=O)n2n1)CN(C(C)C)C3=O [Example 290, 2-[5,8-dioxo-6-(propan-2-yl)-2-{[(propan-2-yl)carbamoyl]amino}-5,6,7,8-tetrahydro-4H-pyrazolo[1,5-a]pyrrolo[3,4-d]pyrimidin-4-yl]-N-(5-fluoropyridin-2-yl)acetamide]"
9350 nM,201,47 nM,57 nM,CC(C)N1Cc2c(n(CC(=O)Nc3ccc(F)cn3)c3cc(NC(=O)C4CCOCC4)nn3c2=O)C1=O [Example 284]
> 32000 nM,>152,210 nM,173 nM,"CC(O)c1cc2n(CC(=O)Nc3ccc(F)cn3)c3c(c(=O)n2n1)CN(C(C)C)C3=O (racemic) [Example 275, N-(5-fluoropyridin-2-yl)-2-{2-[(±)-1-hydroxyethyl]-5,8-dioxo-6-(propan-2-yl)-5,6,7,8-tetrahydro-4H-pyrazolo[1,5-a]pyrrolo[3,4-d]pyrimidin-4-yl}acetamide]"
> 32000 nM,>593,54 nM,26 nM,Cc1ccc(-c2cc3n(CC(=O)Nc4ccc(F)cn4)c4c(c(=O)n3n2)CN(C(C)C)C4=O)c(C)n1 [Example 157]
6350 nM,150,42 nM,35 nM,CC(C)N1Cc2c(n(CC(=O)Nc3ccc(F)cn3)c3cc(N(C)C)nn3c2=O)C1=O [Example 172]
6350 nM,29,217 nM,185 nM,CCc1cc2n(CC(=O)Nc3ccc(Br)cn3)c3c(c(=O)n2n1)CN(C(C)C)C3=O [Example 67]
> 32000 nM,>74,433 nM,430 nM,CCc1cc2n(CC(=O)Nc3ccccn3)c3c(c(=O)n2n1)CN(C(C)C)C3=O [Example 64]
